Results from patent EP4570805A1, “TRICYCLIC COMPOUNDS AND MEDICAL USE THEREOF” (Chia Tai Tianqing Pharmaceutical Group Co., Ltd., priority 2022, dated 2024).

Tested on: Capan-1 cells
Assay: Inhibitory activity for Capan-1 cell proliferation (CCK-8)
Format: cell-based
Conditions: 5 days incubation
Method: Capan-1 cells in a well-growing state were collected into a centrifuge tube, adjusted to a cell density of 1.5 × 10^4 cells/mL, and inoculated onto a 96-well plate (100 µL/well). […] Meanwhile, a control was set. After 5 days of incubation in the cell incubator, the assay reagent CCK-8 (manufacturer: Dojindo Laboratories, Beijing; 10 µL/well) was added. After 4 h of incubation in the cell incubator, the absorbance was measured at 450 nm on a PerkinElmer Envision microplate reader. A four-parameter analysis was performed, a dose-response curve was fitted, and IC50 was calculated.

| SMILES | IC50 [nM] |
| --- | --- |
| C#Cc1c(F)ccc2cccc(-c3nc4c5c(nc(OCC67CCCN6CC(F)C7)nc5c3F)N(C(C)c3cccnc3N)C(C)CO4)c12 (single isomer, unassigned) [Example 48] | < 100 |
| CC(c1cccnc1N)N1c2nc(OC[C@@]34CCCN3C[C@H](F)C4)nc3c(F)c(-c4cc(N)cc(Cl)c4C(F)(F)F)nc(c23)OC[C@@H]1C (single isomer, unassigned) [Example 64] | < 100 |
| C#Cc1c(F)ccc2cc(O)cc(-c3nc4c5c(nc(OCC6(CN7CCOCC7)CC6)nc5c3F)N(C(C)c3cccnc3N)[C@@H](C)CO4)c12 (single isomer, unassigned) [Example 70] | < 100 |
| [2H]C([2H])(Oc1nc2c3c(nc(-c4cc(O)cc5ccc(F)c(C#C)c45)c(F)c3n1)OC[C@H](C)N2C(C)c1cccnc1N)[C@@]12CCCN1C[C@H](F)C2 (single isomer, unassigned) [Example 72] | < 100 |
| C#Cc1c(F)ccc2cccc(-c3nc4c5c(nc(OC[C@@H]6CCCN6C)nc5c3F)N(C(C)c3cccnc3N)[C@@H](C)CO4)c12 (single isomer, unassigned) [Example 88] | < 100 |
| C#Cc1c(F)ccc2cc(O)cc(-c3nc4c5c(nc(OC[C@@H]6COCCN6C)nc5c3F)N(C(C)c3cccnc3N)[C@@H](C)CO4)c12 (single isomer, unassigned) [Example 92] | < 100 |
| C#Cc1cccc2cccc(-c3nc4c5c(nc(OC[C@@]67CCCN6C[C@H](F)C7)nc5c3F)N(C(C)c3cccnc3N)[C@@H](C)CO4)c12 (single isomer, unassigned) [Example 131] | < 100 |
| C#Cc1c(F)ccc2cc(O)cc(-c3nc4c5c(nc(OC[C@@H]6C[C@@H](F)CN6C)nc5c3F)N(C(C)c3cccnc3N)[C@@H](C)CO4)c12 (single isomer, unassigned) [Example 147] | < 100 |

Same assay, conditions: Homo sapiens, CAPAN-1, 120 h, 5 days incubation

| SMILES | IC50 [nM] |
| --- | --- |
| C#Cc1c(F)ccc2cc(O)cc(-c3nc4c5c(nc(OCC67CCCN6CC(F)C7)nc5c3F)N(C3CC3)C(C)CO4)c12 (single isomer, unassigned) [Example 45] | < 100 |
| Cc1cccc(-c2nc3c4c(nc(OCC56CCCN5CC(F)C6)nc4c2F)N(C(C)c2cccnc2N)C(C)CO3)c1C(F)(F)F (single isomer, unassigned) [Example 55] | < 100 |
| CC(c1cccnc1N)N1c2nc(OC[C@@]34CCCN3C[C@H](F)C4)nc3c(F)c(-c4ccccc4N(C)C)nc(c23)OC[C@@H]1C (single isomer, unassigned) [Example 57] | < 100 |
| CC(c1cccnc1N)N1c2nc(OC[C@@]34CCCN3C[C@H](F)C4)nc3c(F)c(-c4cccc5ccccc45)nc(c23)OC[C@@H]1C (single isomer, unassigned) [Example 59] | < 100 |
| CC(c1cccnc1N)N1c2nc(OC[C@@]34CCCN3C[C@H](F)C4)nc3c(F)c(-c4ccccc4C(F)(F)F)nc(c23)OC[C@@H]1C (single isomer, unassigned) [Example 61] | < 100 |
| CC(c1cccnc1N)N1c2nc(OC[C@@]34CCCN3C[C@H](F)C4)nc3c(F)c(-c4cc(N)cc(Cl)c4C(F)(F)F)nc(c23)OC[C@@H]1C (single isomer, unassigned) [Example 63] | < 100 |
| C#Cc1c(F)ccc2cc(O)cc(-c3nc4c5c(nc(OC)nc5c3F)N(C(C)c3cccnc3N)[C@@H](C)CO4)c12 (single isomer, unassigned) [Example 65] | < 100 |
| C#Cc1c(F)ccc2cc(O)cc(-c3nc4c5c(nc(OC[C@H](C)OC)nc5c3F)N(C(C)c3cccnc3N)[C@@H](C)CO4)c12 (single isomer, unassigned) [Example 73] | < 100 |
| C#Cc1c(F)ccc2cc(O)cc(-c3nc4c5c(nc(OC[C@@H](C)OC)nc5c3F)N(C(C)c3cccnc3N)[C@@H](C)CO4)c12 (single isomer, unassigned) [Example 75] | < 100 |
| C#Cc1c(F)ccc2cc(O)cc(-c3nc4c5c(nc(OCC(C)(C)OC)nc5c3F)N(C(C)c3cccnc3N)[C@@H](C)CO4)c12 (single isomer, unassigned) [Example 77] | < 100 |
| CC(c1cccnc1N)N1c2nc(OC[C@@]34CCCN3C[C@H](F)C4)nc3c(F)c(-c4ccc(F)c5sc(N)c(C#N)c45)nc(c23)OC[C@@H]1C (single isomer, unassigned) [Example 82] | < 100 |
| C#Cc1c(F)ccc2cc(O)cc(-c3nc4c5c(ncnc5c3F)N(C(C)c3cccnc3N)[C@@H](C)CO4)c12 (single isomer, unassigned) [Example 89] | < 100 |
| C#Cc1c(F)ccc2cc(O)cc(-c3nc4c5c(nc(OC[C@@H]6COCCN6C)nc5c3F)N(C(C)c3cccnc3N)[C@@H](C)CO4)c12 (single isomer, unassigned) [Example 91] | < 100 |
| C#Cc1c(F)ccc2cc(O)cc(-c3nc4c5c(nc(OCc6nccn6C)nc5c3F)N(C(C)c3cccnc3N)[C@@H](C)CO4)c12 (single isomer, unassigned) [Example 93] | < 100 |
| C#Cc1c(F)ccc2cc(O)cc(-c3nc4c5c(nc(OCC6(N)CC6)nc5c3F)N(C(C)c3cccnc3N)[C@@H](C)CO4)c12 (single isomer, unassigned) [Example 99] | < 100 |
| C#Cc1c(F)ccc2cc(O)cc(-c3nc4c5c(nc(OC[C@@H]6CN(C)CCN6C)nc5c3F)N(C(C)c3cccnc3N)[C@@H](C)CO4)c12 (single isomer, unassigned) [Example 109] | < 100 |
| CC(c1cccnc1N)N1c2nc(OC[C@@]34CCCN3C[C@H](F)C4)nc3c(F)c(-c4ccc(F)c5sc(N)nc45)nc(c23)OC[C@@H]1C (single isomer, unassigned) [Example 116] | < 100 |
| CC(c1cccnc1N)N1c2nc(OC[C@@]34CCCN3C[C@H](F)C4)nc3c(F)c(-c4cccc5ccc(F)c(F)c45)nc(c23)OC[C@@H]1C (single isomer, unassigned) [Example 120] | < 100 |
| CC(c1cccnc1N)N1c2nc(OC[C@@]34CCCN3C[C@H](F)C4)nc3c(F)c(-c4cccc(F)c4N(C)C)nc(c23)OC[C@@H]1C (single isomer, unassigned) [Example 126] | < 100 |
| Cc1cccc(-c2nc3c4c(nc(OC[C@@]56CCCN5C[C@H](F)C6)nc4c2F)N(C(C)c2cccnc2N)[C@@H](C)CO3)c1N(C)C (single isomer, unassigned) [Example 128] | < 100 |
| C#Cc1c(F)ccc2cc(O)cc(-c3nc4c5c(nc(OCCCN6CCCC6)nc5c3F)N(C(C)c3cccnc3N)[C@@H](C)CO4)c12 (single isomer, unassigned) [Example 132] | < 100 |
| C#Cc1c(F)ccc2cc(O)cc(-c3nc4c5c(nc(OCCN6CCOCC6)nc5c3F)N(C(C)c3cccnc3N)[C@@H](C)CO4)c12 (single isomer, unassigned) [Example 136] | < 100 |
| C#Cc1c(F)ccc2cc(O)cc(-c3nc4c5c(nc(OCCCN6CCCCC6)nc5c3F)N(C(C)c3cccnc3N)[C@@H](C)CO4)c12 (single isomer, unassigned) [Example 142] | < 100 |
| C#Cc1c(F)ccc2cc(O)cc(-c3nc4c5c(nc(OCC(C)CN(C)C)nc5c3F)N(C(C)c3cccnc3N)[C@@H](C)CO4)c12 (single isomer, unassigned) [Example 144] | < 100 |
| C#Cc1c(F)ccc2cc(O)cc(-c3nc4c5c(nc(OC[C@@H](C)N(C)C)nc5c3F)N(C(C)c3cccnc3N)[C@@H](C)CO4)c12 (single isomer, unassigned) [Example 152] | < 100 |
